Test results: a melting point compilation (Tetko et al.; mined from patent text by program, amines drawn as free bases though some values may be those of a salt)

`Cn1cncc1C1(C(c2cccs2)c2cccs2)CCOC1=O` (stereo not given) showed a melting point of 80 °C.
In the case of `O=c1[nH]c2cc(Cl)ccc2c(NS(=O)(=O)c2ccccc2)c1-c1ccccc1`, the melting point was 268 °C.
For `O=C(CS)NCC(=O)NCCS`, the melting point was 128 to 130 °C.
With `CC=C1CCC2C3CCC4CC(O)C(OCC)CC4(C)C3C(=NO)CC12C` (stereo not given) the melting point was 176 to 193 °C.
`CCOC(=O)c1cn2c(ccc3cc(OC)ccc32)n1` gave a melting point of 119 to 121 °C.
Work on `COc1ccc(-c2nc(C(C)=O)oc2-c2ccc(OC)cc2)cc1` yielded a melting point of 139 to 140 °C.
`CC1=Nc2ccccc2C1(C)CCCCCC(=O)O` (stereo not given) gave a melting point of 115 to 118 °C.
Work on `CN(C)C=C(SCCN1C(=O)c2ccccc2C1=O)C(=O)c1ccc(F)cc1` yielded a melting point of 108 to 111 °C.
In the case of `OC1=NC2CCCc3cccc(c32)N1` (stereo not given), the melting point was 230 to 233 °C.
Molecule `c1ccc(OCCSCc2nnc(-c3ccc(OCCCCN4CCSCC4)cc3)o2)cc1` has a melting point of 58 °C.
For `CC(=O)N(C#N)Cc1ccc(CN(C#N)C(C)=O)cc1`, the melting point was 160 to 162 °C.
With `COC(=O)c1cc(C(=O)N[C@@H](Cc2ccccc2)[C@H](O)CNC2(c3cccc(C(F)(F)F)c3)CC2)n2c1CN(C(=O)OC(C)(C)C)CC2` the melting point was 136 °C.
Molecule `CCc1[nH]n(C2CCCC2)c2nc(Cc3cccc(O)c3)nc(=O)c1-2` has a melting point of 195 to 197 °C.
Molecule `COC(=O)c1cc(OC)c(CNC(C)=O)c(OC)c1` has a melting point of 184 °C.
Molecule `COCOc1cccc(-c2ccc(-c3ccccc3)cc2-c2ccc3c(c2)C(C)(C)CCC3(C)C)c1C(=O)O` has a melting point of 103 to 104 °C.
`CCOc1cc(Cc2cnc(N)nc2N)cc2c1OC(C)(C)C=C2C` showed a melting point of 216 to 218 °C.
For `CC(CCc1ccccc1)NC(CO)C(O)c1ccc(S(C)(=O)=O)cc1` (stereo not given), the melting point was 120 to 122 °C.
Molecule `CCCNc1nc(N)n[nH]1` has a melting point of 148 to 149 °C.
Work on `CCOC(=O)c1cn(CC)c2cc(C(=O)C=C(C)N(C)C)ccc2c1=O` yielded a melting point of 178 to 180 °C.
Molecule `COc1ccc2c(=O)c3[nH]cc(C(=O)O)c(=O)c3oc2c1` has a melting point of 318 to 319 °C.
`Oc1ccc(CNc2ncncc2Cl)cc1` gave a melting point of 190 to 191 °C.
For `CC(=O)Nc1cc([N+](=O)[O-])ccc1OCCCN(C)C`, the melting point was 69 °C.
For `CC(C)(C)NS(=O)(=O)c1ccc(-c2cn(-c3cc(-c4ccc(C(F)(F)F)cc4)cc(C(F)(F)F)n3)cn2)s1`, the melting point was > 250 °C.
For `CN1CCC(C2(O)c3cc(Cl)ccc3CC2(C)C)CC1` (stereo not given), the melting point was 181 to 182 °C.
`O=C(O)c1cc(-c2ccc(Cl)cc2)nc(-c2ccc(Cl)c(Cl)c2)c1` gave a melting point of 303 to 304 °C.
`Fc1ccc(-c2nc(=S)c3c(o2)CCCC3)cc1` gave a melting point of 148 to 149 °C.
`O=C1NS(=O)(=O)c2cccc(O)c21` showed a melting point of 228 °C.
For `N#Cc1cc(F)ccc1N1CCN(Cc2cn3cc(Cl)ccc3n2)CC1`, the melting point was 179 to 180 °C.
In the case of `Nc1ccn(C2OC(CO)C(O)C2O)c(=O)c1F` (stereo not given), the melting point was 234 to 236 °C.
With `O=C(O)Cc1c(C(=O)c2ccc(OC(F)(F)F)cc2)[nH]c2cc(Cl)ccc12` the melting point was 166 to 168 °C.
Molecule `CCc1cc(Cl)cc2c1NC(C)NS2(=O)=O` (stereo not given) has a melting point of 181 to 183 °C.
Molecule `O=C(c1ncc[nH]1)c1cc(F)c(F)cc1Cl` has a melting point of 80 to 81 °C.
Molecule `CCOC(=O)C1CCN(c2cc(-n3c(=O)cc(C(F)(F)F)[nH]c3=O)c(F)cc2C#N)CC1` has a melting point of 124 °C.
Work on `CCc1nn(-c2ccc(F)cc2)c2cc(C3=CCC(C(=O)O)CC3)ccc12` (stereo not given) yielded a melting point of 214 to 216 °C.
For `CS(=O)(=O)OCCC1(CCOS(C)(=O)=O)c2ccccc2Oc2ccccc21`, the melting point was 121 to 122 °C.
In the case of `CC(=O)Nc1ccc2c(c1)cc(C(=O)c1ccc(C)cc1)n2C`, the melting point was 211 to 213 °C.
`CCOC(=O)c1nc2cc(C)c(C)cc2nc1Cl` gave a melting point of 109 to 111 °C.
In the case of `Cc1cc(C(C)(C)C)cc(C)c1[N+](=O)[O-]`, the melting point was 80 to 82 °C.
`O=C(c1ccc(Cl)cc1)c1cccnc1N1CCCCC1=O` gave a melting point of 154 to 156 °C.
`CC1NC(=O)NN=C1c1ccc(Cl)cc1` (stereo not given) gave a melting point of 221 to 222 °C.
Molecule `COC(=O)[C@H](Cc1ccc(OCCc2nc(-c3ccccc3)oc2C)cc1)Nc1ccccc1C(=O)c1ccccc1` has a melting point of 55 to 60 °C.
`Cc1cc([N+](=O)[O-])cc(C)c1Cl` showed a melting point of 101 to 105 °C.
In the case of `O=C(CSCc1ccc2c(c1)OCO2)NO`, the melting point was 127 to 128 °C.
With `CCOC(=O)c1c(Cn2cncn2)nc2sc(C)c(C)c2c1-c1ccc2c(c1)OCO2` the melting point was 109 to 110 °C.
With `O=[N+]([O-])c1cccc(O)c1O` the melting point was 82 to 85 °C.
`CC(C)(c1ccc(C(C)(C)c2ccc3ccccc3c2O)cc1)c1ccc2ccccc2c1O` gave a melting point of 245 to 255 °C.
In the case of `COc1ccc(Oc2c([N+](=O)[O-])cc(C(=O)O)cc2S(N)(=O)=O)cc1`, the melting point was 229 to 230 °C.
With `CCOC(=O)c1c[nH]nc1-c1ccc(Cl)cc1` the melting point was 95 to 100 °C.
In the case of `CCCCOCCCNC(=O)c1cnc(C(=O)NCC(=O)OCCCC)c(OC)c1`, the melting point was 115 to 117 °C.
With `Cc1c2c(cc(=O)n1CC(C)O)CCC(c1ccccn1)C2` (stereo not given) the melting point was 300 °C.
For `Cc1ccccc1Nc1nc2ccc(CC(=O)Nc3ccc(C4(CC(=O)O)CCCC4)cc3)cc2o1`, the melting point was 123 to 126 °C.
Molecule `Nc1ccc2ccc(SCc3ccccc3)nc2n1` has a melting point of 167 °C.
In the case of `CC(=O)N1CCC(C(=O)c2ccc(N3CCCCC3)cc2)CC1`, the melting point was 122 to 125 °C.
`COc1ccccc1Oc1c(N=[N+]=[N-])nc(-c2ncccn2)nc1C(=O)OCCO` gave a melting point of 133 to 134 °C.
Work on `CN(C)C(=O)Nc1ccc(Oc2cccc(C(F)(F)F)c2)c(Cl)c1` yielded a melting point of 166 °C.
With `CC(C)(O)c1cnn2c(-c3ccc(F)c(-c4ccncc4)c3)cnc2n1` the melting point was 233 to 237 °C.
For `O=C(O)CCCCCCNS(=O)(=O)c1ccc(Cl)cc1`, the melting point was 128 to 129 °C.
In the case of `COc1cc2c(cc1OCCCN1CCC(c3[nH]cc4cc(F)ccc34)CC1)CCCC2=O`, the melting point was 129 to 131 °C.
Work on `CCOC(=O)C=C1CN=C(c2ccccc2Cl)c2cc(Cl)ccc2N1` yielded a melting point of 103 to 105 °C.
Work on `O=C1OC2(CCCCC2)OC(=O)C12CC2` yielded a melting point of 134 to 135 °C.
`NCc1ccc(CC(=O)Nc2cccc(C(=O)NCCC(=O)O)c2)cc1` showed a melting point of 108 to 109 °C.
Molecule `CCc1csc2ccc3[nH]c4c(c3c12)CN(C)CC4` has a melting point of 181 to 182 °C.
`COC(=O)C1=C(C)NN=C(c2ccccc2)C1c1ccccc1` (stereo not given) gave a melting point of 158 °C.
`CC(=O)c1[nH]c(-c2ccc(O)cc2)nc1C` showed a melting point of 300 °C.
`CN1C(=O)N(c2cc(Cl)cc(Cl)c2)C(=O)[C@]12CN(Cc1cc(C(=O)O)cs1)C[C@H]2c1ccc(C#N)cc1` (relative stereo) gave a melting point of 188 °C.
Work on `CCCCCCCCCCCCOc1ccc(C(=O)OC)cc1` yielded a melting point of 56 to 57 °C.
Molecule `COC(=O)C1=C(C)NC(C)=C(c2ccccc2)C1c1cccc(Cl)c1` (stereo not given) has a melting point of 191 °C.
`Cc1ccc(NC(=O)N2CCC(=C(F)c3cccc(Oc4ccc(C(F)(F)F)cn4)c3)CC2)cn1` showed a melting point of 158 to 160 °C.
For `CS(=O)(=O)c1ccc(-n2nc(C(F)(F)F)cc2-c2ccc(-c3ccco3)cc2)cc1Cl`, the melting point was 139 to 142 °C.
Work on `CNC(=O)C(=NOCF)c1ccccc1Oc1ncnc(Oc2ccccc2Cl)c1F` yielded a melting point of 128 to 129 °C.
For `OC(COc1cccc2c1SCCC2)CN1CCC(c2ccccc2)CC1` (stereo not given), the melting point was 104 °C.
Molecule `CCCCNC(=O)NS(=O)(=O)c1ccc(CCNC(=O)N2Cc3c(Cl)cc(Cl)cc3C2=O)cc1` has a melting point of 190 to 192 °C.
Work on `Cc1ccc(-c2nc(Cc3cccc(Br)c3)c(C)o2)cc1` yielded a melting point of 74 to 75 °C.
Molecule `COc1cccc2c(Nc3ccccc3)nc(Cl)nc12` has a melting point of 245 to 246 °C.
For `O=C(O)Cc1ccc(OCCNC(=O)C2Cc3ccccc3N2S(=O)(=O)c2ccc(-c3ccc(F)cc3Cl)cc2)cc1` (stereo not given), the melting point was 90 °C.
`Nc1ccc2c(c1)CN(Cc1ccccc1)C2` gave a melting point of 110 to 115 °C.
Molecule `CCC(C)N(C(=O)c1ccccc1C(N)=O)c1ccc(Cn2nnn(-c3ccc(C(F)(F)F)cc3)c2=O)cc1C` (stereo not given) has a melting point of 217 to 218 °C.
Work on `COC(=O)C1=C(C)NC(C)=C(C(=O)OCCN2CCN(C(c3ccccc3)c3ccccc3)CC2)C1c1cccc(Cl)c1Cl` (stereo not given) yielded a melting point of 84 to 88 °C.
Molecule `CCc1nc2c(N)nc(C)c(C)c2n1CCOCCNC(=O)C1CCCCC1` has a melting point of 170 to 172 °C.
For `C=CCCC(O)=C(C#N)C(=O)Nc1ccc(C(F)(F)F)cc1`, the melting point was 145 °C.
`CCOC(=O)c1ccc(-n2nc(C(F)(F)F)cc2-c2ccc(S(C)(=O)=O)cc2)cc1` gave a melting point of 159 to 161 °C.
With `OC1CSC(Oc2ccc(-c3ccc(OC(F)(F)F)cc3)nc2)C(O)C1O` (stereo not given) the melting point was 184 to 186 °C.
In the case of `CC(C)(C)c1cc(CCc2ccccc2NC(=O)N2CCCCCC2)cc(C(C)(C)C)c1O`, the melting point was 136 to 138 °C.
Molecule `CC(=O)OC1CCC(NC(=O)Nc2ccccc2CCc2cc(C(C)(C)C)c(O)c(C(C)(C)C)c2)CC1` (stereo not given) has a melting point of 92 to 94 °C.
`COC(=O)c1ccc(Cn2nc(C(N)=O)c3ccccc32)cc1` gave a melting point of 163 to 165 °C.
Work on `Cc1nc2ccccc2n1-c1ccccn1` yielded a melting point of 121 to 123 °C.
`Cc1ccc(S(=O)(=O)N2[C@@H](C#N)CC[C@H]2c2ccc(F)cc2)cc1` (racemic) gave a melting point of 128 °C.
Work on `O=C(NC1CCCCC1)NS(=O)(=O)c1ccc(CCNC(=O)N2CC3CCCCC3C2=O)cc1` (stereo not given) yielded a melting point of 139 to 140 °C.
`CCCCc1nc(C(F)(F)F)c(C(=O)OCC)n1O` showed a melting point of 77.5 to 80.5 °C.
For `COc1cc(Nc2c(C#N)cnc3cc(-c4csc(CN5CCOCC5)c4)c(OC)cc23)c(Cl)cc1Cl`, the melting point was 148 to 150 °C.
In the case of `CCC(CO)NCC(O)COc1ccccc1C#N` (stereo not given), the melting point was 106 to 108 °C.
In the case of `COc1ccc(Cn2c(=O)c(C(=O)NC3CCCCC3)c(O)c3cc(Cl)cnc32)cc1`, the melting point was 193 °C.
Molecule `COc1ccc(C(=O)N(C)C2N(C)C(c3ccc(F)cc3)=NC2(C(F)(F)F)C(F)(F)F)cc1` (stereo not given) has a melting point of 136 to 137 °C.
`O=C(c1ccc(Cl)cc1)C(O)c1ccc(Cl)cc1` (stereo not given) gave a melting point of 73 °C.
With `FC(F)(F)C1(c2ccccc2)c2ccccc2Oc2ccccc21` the melting point was 89 to 90 °C.
Work on `COCCc1nc2c(N)nc3ccccc3c2n1CCCCN1CCCS1(=O)=O` yielded a melting point of 156 to 158 °C.
With `Cc1nn(-c2ccc(Cl)nn2)c(C)c1N` the melting point was 165 to 168 °C.
Molecule `CS(=O)(=O)c1cccc(Cc2cc3c(F)ccc(-c4cccc(C(=O)NCC(N)=O)c4)c3s2)c1` has a melting point of 107 to 108 °C.
For `C=CCC1COC(CC)(CC(=O)O)c2[nH]c3c(CC)cccc3c21` (stereo not given), the melting point was 96 to 97 °C.
`CCCCSc1cn(C)cc(-c2cccc(C(F)(F)F)c2)c1=O` showed a melting point of 109 to 110 °C.
